# Measured values: US20100298376A1, “USE OF NOVEL NEUROPROTECTIVE 3-SUBSTITUTED INDOLONE COMPOSITIONS” (BOARD OF REGENTS, THE UNIVERSITY OF TEXAS SYSTEM, priority 2009, published 2010)
# Several values for one entry are separate records, joined by “and”; a condition that tells them apart may be missing. Identical values can stand only once. Like-named read-outs stand apart in the source and are kept apart here.
# Experiments:
# [1] = tested on: cerebellar granule neurons; details: for % neuronal survival Mean ± SD: Table 1, 24 hours, percent of HK control
# Description: These compounds were analyzed for their neuroprotective activity in vitro. Granule neuron cultures were obtained from dissociated cerebella of 7-8 day old Wistar rats as known to one of ordinary skill in the art. Cells were plated in Basal Eagle's Medium with Earles salts (BME) supplemented with 10% fetal calf serum (FCS), 25 mM KCl, 2 mM glutamine (Invitrogen), and 100 μg/ml gentamycin on dishes (Nunc) coated with poly-L-lysine in 24-well dishes at a density 1×10^6 cells/well. Cytosine arabinofuranoside (10 μM) was added to the culture medium 18-22 hours after plating to prevent replication of non-neuronal cells that yields highly pure culture of granule neurons. The neuronal cultures were maintained for 7-8 days prior to treatments.
# This experimental model of neuronal apoptosis has been used widely used to understand the molecular mechanisms underlying neurodegeneration and to identify biological and chemical agents with neuroprotective efficacy. For this, the cells were rinsed once and then maintained in low K^+ medium (serum-free BME medium, 5 mM KCl; referred to as LK), or in the case of control cultures, in high K^+ medium (serum-free BME medium, supplemented with 20 mM KCl; referred to as HK). Each compound was tested at three different concentrations of 1 μM, 5 μM, and 25 μM. The 25 μM concentration was included to evaluate neurotoxicity. For treatments, the chemical compounds (dissolved in dimethylsulfoxide) were added directly to LK medium at the time of the switch from HK at concentrations of 1 μM, 5 μM, or 25 μM. Viability was assessed 24 hours later. Each compound was tested in duplicate (at each of the concentrations) and the experiment repeated at least 3 times. Although all compounds were solubilized in dimethylsulfoxide (DMSO), the amount of DMSO in the cultures never exceeded 0.1% (v/v).
# The viability status of neuronal cultures treated with HK, LK, or LK medium supplemented with various compounds was evaluated by phase contrast microscopy and quantified by staining cell nuclei with 4′,6′-diamidino2-phenylindole hydrochloride (DAPI). Briefly, the cells were fixed in 4% paraformaldehyde for 20 minutes at 4′C. After washing in phosphate buffered saline, DAPI (1 μg/ml in phosphate buffered saline) was added for 15 min at room-temperature and viewed under ultraviolet light (260 nm). Cells with condensed or fragmented nuclei were scored as dead. […] Statistical analysis was performed using an unpaired, two-tailed Student's t test, compared to mean neuronal survival of control cultures receiving LK treatment and the quantitative data are presented in Tables 1 and 2 for each compound.
# [2] = tested on: cerebellar granule neurons; assay: TUNEL and active caspase-3 immunoreactivity in neuronal cultures (FIG. 1); format: cell-based, Wistar rats; details: Compound 31 at 1 μm, compared with Compounds 7, 37 and 39, 24 hours
# Source text: FIG. 1 is a photograph illustrating the qualitative neuroprotective effects of Compound 7 (5 μm), Compound 31 (1 μm), Compound 37 (25 μm) and Compound 39 (25 lam) are illustrated presented in the figure. From left to right columns show phase-contrast micrographs of neuronal morphology, DAPI staining of nuclei showing fragmented nuclei, TUNEL staining also showing fragmented DNA, and active caspase-3 immunoreactivity highly indicative of apoptosis. DAPI and TUNEL panels are taken from the same fields.
# The TUNEL assay of neuronal cultures was performed 24 hours after treatment of the cultures using DEADEND™ Fluorometric TUNEL System from Promega (Madison, Wis.) according to the manufacturer's instructions. For immunocytochemical analysis of active caspase 3, neuronal cultures cells were fixed and treated with 0.2% Triton for 5 minutes. After blocking with PBS containing 5% BSA and 5% goat serum in PBS for 30 minutes, the coverslips were incubated with the active capase-3 primary antibody overnight at 4° C. After three washes with phosphate-buffered saline (PBS), the cells were incubated with secondary antibodies for 45 minutes at 25° C. after which the cells were washed with PBS. To visualize nuclei, cells were stained with DAPI for 15 minutes at 25° C.
# [3] = Z/E isomer stability in DMSO-d6 by NMR; format: physicochemical; details: 6 hours from mixing
# [4] = Solubility in the culture medium; details: 25 μM
# [5] = LK medium, concentration not specified
Structure (SMILES),"neuroprotective activity (in words) [1, 5]",% neuronal survival Mean ± SD ([1]; 1 μM in LK medium) [%],% neuronal survival Mean ± SD ([1]; 5 μM in LK medium),% neuronal survival Mean ± SD ([1]; 25 μM in LK medium) [%],TUNEL and active caspase-3 immunoreactivity (in words) [2],neurotoxicity (in words) [1],neuroprotective activity (in words) ([1]; at 1 μM and 5 μM (two lower concentrations)),neuroprotective activity (in words) ([1]; at 5 μM),percent of Z configuration after 6 hours [3] [%],solubility in the culture medium (in words) [4]
"O=C1Nc2ccc(F)cc2/C1=C\c1cc(Br)cc(Br)c1 [Compound 31, (E)-3-(3′,5′-Dibromobenzylidene)-5-fluoroindolin-2-one]",lack of neuroprotective activity,38.4 ± 6.24,46.1 ± 4.00%,48.1 ± 14.65,greater TUNEL and active caspase-3 immunoreactivity,,,,,
"O=C1Nc2ccc(Br)cc2/C1=C\c1cc(Br)c(O)c(Br)c1 [Compound 16, (E)-5-Bromo-3-(3′,5′-dibromo-4-hydroxybenzylidene)indolin-2-one]",superior to Compound 1,88.4 ± 0.71,98.7% and 98.7 ± 3.85 %,,,not toxic,highly protective,highly effective,80,not completely soluble
